Earlier results as cited in patent US20180271836A1, “TOPICAL NON-AQUEOUS PHARMACEUTICAL FORMULATIONS CONTAINING AN ALKYL SULFOXIDE FOR THE TREATMENT OF TOPICAL REFERENCE INFECTIONS” (priority 2012, published 2018).

## Clc1ccc(COC(Cn2ccnc2)c2ccc(Cl)cc2Cl)c(Cl)c1 (stereo not shown) [miconazole]
  pKa: 6.5
